Test results published in ChEMBL document CHEMBL1909046, “DrugMatrix in vitro pharmacology data”.

Columns and labels:
[1] = target: Sodium-dependent dopamine transporter (Homo sapiens, UniProt Q01959); test: DRUGMATRIX: Dopamine Transporter radioligand binding (ligand: [125I] RTI-55); type: cell membranes, CHO-K1, Membrane; conditions: cho-k1; Not Active = under 50% inhibition at 10 µM
[2] = target: T1, Angiotensin-converting enzyme (Oryctolagus cuniculus, UniProt P12822); type: tissue-based, Lung;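 further: enzymatic inhibition of angiotensin-converting enzyme measured with FAPGG as the substrate; in other assays of this panel Not Active means under 50% inhibition at 10 µM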
T1 sequence (P12822 whole entry): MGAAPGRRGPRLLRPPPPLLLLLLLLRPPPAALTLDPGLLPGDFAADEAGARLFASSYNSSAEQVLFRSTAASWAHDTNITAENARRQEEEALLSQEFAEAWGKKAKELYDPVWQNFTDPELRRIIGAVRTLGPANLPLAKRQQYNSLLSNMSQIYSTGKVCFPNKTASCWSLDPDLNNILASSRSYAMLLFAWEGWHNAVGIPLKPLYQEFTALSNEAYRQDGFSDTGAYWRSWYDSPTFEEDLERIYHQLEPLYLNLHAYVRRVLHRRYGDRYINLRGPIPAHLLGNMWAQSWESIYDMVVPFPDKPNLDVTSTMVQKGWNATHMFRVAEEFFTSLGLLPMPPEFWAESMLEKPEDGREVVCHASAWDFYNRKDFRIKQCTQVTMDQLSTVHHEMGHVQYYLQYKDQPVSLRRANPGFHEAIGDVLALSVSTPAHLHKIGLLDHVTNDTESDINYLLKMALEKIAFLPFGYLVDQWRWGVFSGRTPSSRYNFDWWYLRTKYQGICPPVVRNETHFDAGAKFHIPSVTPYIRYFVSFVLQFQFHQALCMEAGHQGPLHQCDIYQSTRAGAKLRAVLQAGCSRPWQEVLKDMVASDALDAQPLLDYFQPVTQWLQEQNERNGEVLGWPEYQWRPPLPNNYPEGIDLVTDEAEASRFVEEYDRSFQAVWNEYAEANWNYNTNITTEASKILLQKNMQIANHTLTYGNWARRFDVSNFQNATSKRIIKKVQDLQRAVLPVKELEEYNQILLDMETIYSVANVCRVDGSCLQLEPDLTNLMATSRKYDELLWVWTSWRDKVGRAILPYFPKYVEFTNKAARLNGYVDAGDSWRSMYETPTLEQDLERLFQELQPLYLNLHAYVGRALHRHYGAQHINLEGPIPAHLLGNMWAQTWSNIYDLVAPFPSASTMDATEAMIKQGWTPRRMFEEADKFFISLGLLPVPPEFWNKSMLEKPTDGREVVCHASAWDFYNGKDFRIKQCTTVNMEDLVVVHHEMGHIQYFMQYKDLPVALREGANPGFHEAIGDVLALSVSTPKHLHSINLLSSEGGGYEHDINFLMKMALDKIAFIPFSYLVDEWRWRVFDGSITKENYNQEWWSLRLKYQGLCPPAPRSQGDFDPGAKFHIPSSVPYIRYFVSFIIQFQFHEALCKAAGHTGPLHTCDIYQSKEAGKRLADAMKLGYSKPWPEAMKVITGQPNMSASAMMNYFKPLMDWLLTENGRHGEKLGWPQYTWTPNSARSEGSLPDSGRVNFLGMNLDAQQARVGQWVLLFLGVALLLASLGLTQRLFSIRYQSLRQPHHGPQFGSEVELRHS

Glucocorticoid receptor = target: T2, Glucocorticoid receptor (Homo sapiens, UniProt P04150); conditions: hela s3; further: in other assays of this panel Not Active means under 50% inhibition at 10 µM
T2 sequence (P04150 whole entry): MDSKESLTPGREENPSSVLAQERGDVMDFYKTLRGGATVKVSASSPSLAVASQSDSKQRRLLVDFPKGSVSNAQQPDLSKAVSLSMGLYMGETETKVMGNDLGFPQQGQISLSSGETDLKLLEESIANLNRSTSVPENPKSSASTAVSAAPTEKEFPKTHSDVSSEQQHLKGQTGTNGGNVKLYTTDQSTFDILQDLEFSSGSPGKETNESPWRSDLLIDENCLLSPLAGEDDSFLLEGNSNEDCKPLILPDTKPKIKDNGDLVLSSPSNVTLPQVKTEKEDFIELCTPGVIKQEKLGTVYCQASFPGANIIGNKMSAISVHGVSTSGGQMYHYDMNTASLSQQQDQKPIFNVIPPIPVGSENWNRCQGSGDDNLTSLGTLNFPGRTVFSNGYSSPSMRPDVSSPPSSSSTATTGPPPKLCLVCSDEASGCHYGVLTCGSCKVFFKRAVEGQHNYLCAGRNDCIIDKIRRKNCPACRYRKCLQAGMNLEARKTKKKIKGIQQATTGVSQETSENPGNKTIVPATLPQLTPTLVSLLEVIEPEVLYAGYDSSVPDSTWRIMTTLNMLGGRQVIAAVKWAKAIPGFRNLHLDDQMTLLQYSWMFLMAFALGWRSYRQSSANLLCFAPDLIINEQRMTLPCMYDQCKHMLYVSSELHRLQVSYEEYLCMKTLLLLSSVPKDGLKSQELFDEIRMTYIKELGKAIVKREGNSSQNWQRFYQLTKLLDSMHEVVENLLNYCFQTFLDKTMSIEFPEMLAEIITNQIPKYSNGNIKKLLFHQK

[3] = target: T3, Alpha-1A adrenergic receptor (Rattus norvegicus, UniProt P43140); test: DRUGMATRIX: Alpha-1A adrenergic receptor radioligand binding (ligand: prazosin); type: cell membranes, Wistar, Submaxillary gland, Membrane; conditions: Not Active = under 50% inhibition at 10 µM
T3 sequence (P43140 whole entry): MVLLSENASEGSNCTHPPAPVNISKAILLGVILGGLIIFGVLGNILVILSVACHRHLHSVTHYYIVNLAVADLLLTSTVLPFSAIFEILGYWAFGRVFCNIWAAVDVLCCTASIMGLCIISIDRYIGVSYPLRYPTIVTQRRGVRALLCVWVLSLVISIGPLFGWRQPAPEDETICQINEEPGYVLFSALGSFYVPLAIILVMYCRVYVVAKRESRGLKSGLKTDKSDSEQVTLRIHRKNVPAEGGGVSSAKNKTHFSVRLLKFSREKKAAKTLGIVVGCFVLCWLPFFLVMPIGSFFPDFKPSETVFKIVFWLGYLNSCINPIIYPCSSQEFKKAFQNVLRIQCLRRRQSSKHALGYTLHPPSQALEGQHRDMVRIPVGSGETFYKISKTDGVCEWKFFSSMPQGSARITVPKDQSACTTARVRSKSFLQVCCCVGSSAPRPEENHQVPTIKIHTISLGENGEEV

[4] = DRUGMATRIX: Purinergic P2X radioligand binding (ligand: [3H] alpha, beta-Methylene-ATP); type: cell membranes, Oryctolagus cuniculus, New Zealand albino, Urinary bladder, Membrane; conditions: Not Active = under 50% inhibition at 10 µM

Chain of Sodium-dependent dopamine transporter (Q01959 whole entry): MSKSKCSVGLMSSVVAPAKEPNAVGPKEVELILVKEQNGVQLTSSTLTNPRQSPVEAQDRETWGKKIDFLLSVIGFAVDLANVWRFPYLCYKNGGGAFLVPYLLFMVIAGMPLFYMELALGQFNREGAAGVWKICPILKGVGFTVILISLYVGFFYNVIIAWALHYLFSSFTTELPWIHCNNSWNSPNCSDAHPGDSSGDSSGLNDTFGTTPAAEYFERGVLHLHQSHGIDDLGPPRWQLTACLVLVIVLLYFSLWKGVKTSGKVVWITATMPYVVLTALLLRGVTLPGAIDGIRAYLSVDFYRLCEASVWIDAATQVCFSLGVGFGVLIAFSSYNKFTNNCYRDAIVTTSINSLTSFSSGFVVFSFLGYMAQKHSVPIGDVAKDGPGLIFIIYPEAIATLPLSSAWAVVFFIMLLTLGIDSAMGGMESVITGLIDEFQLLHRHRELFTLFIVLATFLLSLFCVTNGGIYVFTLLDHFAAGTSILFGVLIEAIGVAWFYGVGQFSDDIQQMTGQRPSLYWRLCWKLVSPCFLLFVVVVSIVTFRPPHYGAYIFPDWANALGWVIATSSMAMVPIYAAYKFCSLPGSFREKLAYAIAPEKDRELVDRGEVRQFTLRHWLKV

CC(c1cc2ccccc2s1)N(O)C(N)=O (stereo not given) [ZILEUTON]
Not Active: IC50 [1] | IC50 [2] | IC50 (Glucocorticoid receptor) | IC50 [3] | IC50 [4] | Ki [4]

O=C1C(CC[S+]([O-])c2ccccc2)C(=O)N(c2ccccc2)N1c1ccccc1 (stereo not given) [SULFINPYRAZONE]
Not Active: IC50 [1] | IC50 [2] | IC50 (Glucocorticoid receptor) | IC50 [3] | IC50 [4] | Ki [4]

CCN1CCC[C@H]1CNC(=O)c1cc(S(N)(=O)=O)ccc1OC [LEVOSULPIRIDE]
Not Active: IC50 [1] | IC50 [2] | IC50 (Glucocorticoid receptor) | IC50 [3] | IC50 [4] | Ki [4]

CCN(CC)CCNC(=O)c1cc(S(C)(=O)=O)ccc1OC [TIAPRIDE]
Not Active: IC50 [1] | IC50 [2] | IC50 (Glucocorticoid receptor) | IC50 [3] | IC50 [4] | Ki [4]

CCCCOc1cc(CC2CNC(=O)N2)ccc1OC (stereo not given) [RO-201724]
Not Active: IC50 [1] | IC50 [2] | IC50 (Glucocorticoid receptor) | IC50 [3] | IC50 [4] | Ki [4]
